Measured values from ChEMBL document CHEMBL1201862, “PubChem BioAssay data set” (2004).
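Dose response: 5 concentrations. Exposure: 48 h. Format: 96-well plates. Endpoint: linear interpolation; highest concentration if not reached. GI50 = concentration required for 50% inhibition of growth.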 Active and inactive are the calls of the source. Rule as the data show it: active = GI50 up to about 1.1 µM and inactive = higher.

What was measured:
Assay in all cases: NCI anticancer screen, dose series, 48 h
786-0 = tested on: 786-0
A498 = tested on: A498
A549 = tested on: A549
ACHN = tested on: ACHN
BT-549 = tested on: BT-549
CAKI-1 = tested on: CAKI-1
CCRF-CEM = tested on: CCRF-CEM
COLO 205 = tested on: COLO 205
DU-145 = tested on: DU-145
EKVX = tested on: EKVX
HCC 2998 = tested on: HCC 2998
HCT-116 = tested on: HCT-116
HCT-15 = tested on: HCT-15
HOP-62 = tested on: HOP-62
HOP-92 = tested on: HOP-92
HT-29 = tested on: HT-29
Hs-578T = tested on: Hs-578T
IGROV-1 = tested on: IGROV-1
K562 = tested on: K562
KM12 = tested on: KM12
M14 = tested on: M14
MCF7 = tested on: MCF7
MDA-MB-435 = tested on: MDA-MB-435
MDA-N = tested on: MDA-N
MOLT-4 = tested on: MOLT-4
Malme-3M = tested on: Malme-3M
NCI-H226 = tested on: NCI-H226
NCI-H23 = tested on: NCI-H23
NCI-H460 = tested on: NCI-H460
NCI-H522 = tested on: NCI-H522
NCI/ADR-RES = tested on: NCI/ADR-RES
OVCAR-3 = tested on: OVCAR-3
OVCAR-4 = tested on: OVCAR-4
OVCAR-5 = tested on: OVCAR-5
OVCAR-8 = tested on: OVCAR-8
PC-3 = tested on: PC-3
RPMI-8226 = tested on: RPMI-8226
RXF 393 = tested on: RXF 393
SF-268 = tested on: SF-268
SF-295 = tested on: SF-295
SF-539 = tested on: SF-539
SK-MEL-28 = tested on: SK-MEL-28
SK-MEL-2 = tested on: SK-MEL-2
SK-MEL-5 = tested on: SK-MEL-5
SK-OV-3 = tested on: SK-OV-3
SN12C = tested on: SN12C
SNB-19 = tested on: SNB-19
SNB-75 = tested on: SNB-75
SR = tested on: SR
SW-620 = tested on: SW-620
T47D = tested on: T47D
TK-10 = tested on: TK-10
U-251 = tested on: U-251
UACC-257 = tested on: UACC-257
UACC-62 = tested on: UACC-62
UO-31 = tested on: UO-31

For `CCc1c(CN)c(CC)c(CNC2=NCCN2)c(CC)c1CNC1=NCCN1`, the GI50 (786-0) was > 100 µM (inactive), the GI50 (A498) was > 100 µM (inactive) and the GI50 (A549) was > 100 µM (inactive). For the same molecule, the GI50 (ACHN) was > 100 µM (inactive), the GI50 (BT-549) was > 100 µM (inactive) and the GI50 (CAKI-1) was > 100 µM (inactive). For the same molecule, the GI50 (CCRF-CEM) was > 100 µM (inactive), the GI50 (COLO 205) was > 100 µM (inactive) and the GI50 (DU-145) was > 100 µM (inactive). For the same molecule, the GI50 (EKVX) was > 100 µM (inactive), the GI50 (HCC 2998) was > 100 µM (inactive) and the GI50 (HCT-116) was > 100 µM (inactive). For the same molecule, the GI50 (HCT-15) was greater than 100 µM, the GI50 (HOP-62) was > 100 µM (inactive) and the GI50 (HOP-92) was > 100 µM (inactive). For the same molecule, the GI50 (HT-29) was > 100 µM (inactive), the GI50 (Hs-578T) was > 100 µM (inactive) and the GI50 (IGROV-1) was > 100 µM (inactive). The GI50 (K562) was > 100 µM (inactive), the GI50 (KM12) was > 100 µM (inactive) and the GI50 (M14) was > 100 µM (inactive). The GI50 (MCF7) was > 100 µM (inactive), the GI50 (MDA-MB-435) was > 100 µM (inactive) and the GI50 (MDA-N) was > 100 µM (inactive). For the same molecule, the GI50 (MOLT-4) was > 100 µM (inactive), the GI50 (Malme-3M) was > 100 µM (inactive) and the GI50 (NCI-H226) was > 100 µM (inactive). For the same molecule, the GI50 (NCI-H23) was > 100 µM (inactive), the GI50 (NCI-H460) was > 100 µM (inactive) and the GI50 (NCI-H522) was > 100 µM (inactive). The GI50 (NCI/ADR-RES) was > 100 µM (inactive), the GI50 (OVCAR-3) was > 100 µM (inactive) and the GI50 (OVCAR-4) was > 100 µM (inactive). For the same molecule, the GI50 (OVCAR-5) was > 100 µM (inactive), the GI50 (OVCAR-8) was > 100 µM (inactive) and the GI50 (PC-3) was > 100 µM (inactive). The GI50 (RPMI-8226) was > 100 µM (inactive), the GI50 (RXF 393) was > 100 µM (inactive) and the GI50 (SF-268) was > 100 µM (inactive). The GI50 (SF-295) was > 100 µM (inactive), the GI50 (SF-539) was > 100 µM (inactive) and the GI50 (SK-MEL-28) was > 100 µM (inactive). The GI50 (SK-MEL-2) was > 100 µM (inactive), the GI50 (SK-MEL-5) was > 100 µM (inactive) and the GI50 (SK-OV-3) was > 100 µM (inactive). The GI50 (SN12C) was > 100 µM (inactive), the GI50 (SNB-19) was > 100 µM (inactive) and the GI50 (SNB-75) was > 100 µM (inactive). The GI50 (SR) was > 100 µM (inactive), the GI50 (SW-620) was > 100 µM (inactive) and the GI50 (T47D) was > 100 µM (inactive). For the same molecule, the GI50 (TK-10) was > 100 µM (inactive), the GI50 (U-251) was > 100 µM (inactive) and the GI50 (UACC-257) was > 100 µM (inactive). The GI50 (UACC-62) was > 100 µM (inactive) and the GI50 (UO-31) was > 100 µM (inactive).
